The values that follow come from patent US10471030B2, “Immunomodulatory and differentiating function selective retinoid and rexinoid compounds in combination with immune modulators for cancer immunotherapy” (Io Therapeutics, Inc., priority 2017, dated 2019).

One experiment has as its system RARα. The experiment can be described thus: transactivation assay, agonist activity. It counts as cell-based. The following applies: RARα versus RARβ, RARγ; FIG. 1.
A further experiment concerns Kasumi-1 cells. The experiment can be described thus: CFU experiments off and on stroma, Kasumi-1 cells. It counts as cell-based. The note with it: 10^−6 M ATRA, IRX5183, or 10^−7 M AM80. From the text:
(§1) Data across three independent experiments.

The subject of experiment [1] is MM cell lines and MM CD138+ primary cells. Kind of experiment: BTZ sensitivity of MM cells, clonogenic or cellular recovery, liquid or BM stroma. It counts as cell-based, human. The following applies: BM stroma with 1 μM test agent for 5 days, then BTZ 2.5 nM for 48 hr. The method, then: 24-well plates were coated with 0.1% gelatin in PBS for 30 min at 37° C. The gelatin solution was removed, and the stromal cells were cultured overnight at a density of 5×10^4 cells/well to obtain a confluent monolayer. At that time, MM cell lines or primary MM cells (1×10^5 in 2 ml) were added to the stroma cultures. The stroma cocultures were incubated at 37° C. in RPMI containing 10% FCS, L-glutamine, and P/S, with or without AGN194310 (1 μM for 5 days), R115866 (1 μM for 5 days), IRX5183 (1 μM for 5 days), or BTZ (2.5 nM for 48 hr).
MM cells were separated from BM stromal cells by gently pipetting several times around the well. Detached cells were centrifuged, resuspended in fresh media, and incubated in a 24-well plate for 1 hr at 37° C. During this short incubation period, contaminating stromal cells attached to the well, while MM cells remained in suspension. MM cells were then recovered by gently pipetting. This protocol was used for qRT-PCR and CFU coculture experiments. The purity achieved using this protocol was confirmed by flow cytometry to be 98%-99% MM cells and less than 2% contaminating stroma.
After treatment, MM cells were collected, washed with PBS, and plated at a density of 5,000 cells/ml in 1 ml of 1.32% methylcellulose supplemented with 30% FBS, 10% BSA, L-glutamine, P/S, and 0.1 mM β-ME. Cells were plated in triplicate in 35-mm culture dishes, incubated at 37° C., and scored for the presence of colonies 14 days later.
To determine whether decreased retinoid signaling contributes to BTZ resistance within the BM niche, MM cell lines and MM CD138+ primary cells were incubated with BM stroma for 5 days, followed by BTZ treatment.
Strategies to overcome microenvironment-dependent chemoprotection have focused on mobilization of cancer cells from the BM niche into the peripheral circulation. It was analyzed whether the change in phenotype and subsequent BTZ resistance of MM cells were lost upon separation from the BM stroma, a process that mimics mobilization. To this end, H929 cells were separated from BM mesenchymal cells following a 5-day stroma co-culture, incubated in fresh media (RPMI with 10% FBS) for 0 to 48 hr, and then treated with BTZ. […] Thus, microenvironment-dependent BTZ resistance induced by the change in MM cell phenotype may not immediately be reversed by tumor mobilization.

In a further experiment the test system is OCI-AML3 cells. The experiment can be described thus: CFU experiments off and on stroma, OCI-AML3 cells. It is filed as cell-based. The following applies: 10^−6 M ATRA, IRX5183, or 10^−7 M AM80.
From the text: as §1

From the text for RARα: Transactivation assays employ expression plasmids encoding the full length receptors RARα, RARβ, and RAR ? . Reporter plasmids containing the herpes virus thymidine kinase promoter and the appropriate retinoic acid receptor response element (RAREs) are positioned upstream of an open coding region encoding firefly luciferase.

With `CC1(C)CCC(C)(C)c2c1cc(C(=O)Nc1cc(F)c(C(=O)O)c(F)c1)c(O)c2Cl` [IRX5183], the “agonist activity, activation of transcription” value in the experiment with RARα is on record as “specifically activates RARα”. The “clonogenic growth (CFU)” value in the experiment with Kasumi-1 cells and in the experiment on OCI-AML3 cells was “decrease in clonogenic growth compared to control” throughout. In addition, the “stroma-induced BTZ resistance” value in experiment [1] is given as “overcome”.
